Where two headings read alike, the source gives them in different places.
Tests used:
Type in all cases: biochemical
[1] = target: GIM-1 (Pseudomonas aeruginosa, UniProt Q704V1); test: GIM-1 inhibition assay with nitrocefin as substrate
From the text: (§1) The blaNDM-1 gene (GenBank ID: FN396876) from K. pneumoniae clinical isolate, blaIMP-1 gene (GenBank ID: S71932) from Acinetobacter baumannii clinical isolate, and blaVIM-2 gene (GenBank ID: AF191564) from Citrobacter freundii clinical isolate were cloned after PCR amplification with primer pairs (Table 3) and then sequenced. Those three clinical isolates were collected from a university hospital in the Republic of Korea. Three DNA templates encoding blaGIM-1 gene (GenBank ID: AJ620678), blacphA gene (GenBank ID: X57102), and blaGOB-1 gene (GenBank ID: AF090141), which are codon optimized for E. coli, were synthesized and purchased from IDT (Integrated DNA Technologies, Coralville, Iowa, USA). The DNA templates were amplified by PCR using suitable primer pairs (Table 3). The amplified DNA and pET-30a(+) vector (Novagen, Madison, Wis., USA) were double-digested with NdeI and XhoI, with digested DNA then ligated into the digested vector. After verifying the DNA sequences, the plasmids, pET-30a(+)/His6-blaNDM-1, pET-30a(+)/His6-blaIMP-1, pET-30a(+)/His6-blaVIM-2, pET-30a(+)/His6-blaGIM-1, pET-30a(+)/His6-blacphA, and pET-30a(+)/His6-blaGOB-1 were individually transformed into E. coli BL21 (DE3) cells. Each of the histidine-tagged proteins, NDM-1, IMP-1, VIM-2, GIM-1, CphA, and GOB-1 were prepared as previously described (Park, et al., J. Glob. Antimicrob. Resist., 14, 302-305 (2018)).
(§2) To investigate the inhibitory effects of novel compounds (DCPBA, ACP-DCPBA, and CHP-DCPBA) against four clinically-important subclass B1 MBLs (NDM-1, IMP-1, VIM-2, and GIM-1), subclass B2 MBL (CphA), and subclass B3 MBL (GOB-1), the IC50 values for them were determined (Table 4). Compounds (DCPBA, ACP-DCPBA, and CHP-DCPBA) were dissolved in 100% DMSO at 10 mM. Activities of MBLs were determined by monitoring the change of absorbance at 482 nm. Up to 5% DMSO, no influence on the enzyme activities of MBLs was observed. […] Data were evaluated using Microsoft Excel. Reaction progress at every concentration of DCPBA (ACP-DCPBA or CHP-DCPBA) was measured in triplicates.

[2] = target: NDM-1 (Klebsiella pneumoniae, UniProt C7C422); test: NDM-1 inhibition assay with nitrocefin as substrate
Method: The screened seven compounds were dissolved in 100% DMSO at 10 mM. More diluted stocks were prepared as necessary. NDM-1 activity was determined by monitoring the change of absorbance at 482 nm using the characteristic molecular extinction coefficient (Δε482=15,900 M^−1 cm^−1) of nitrocefin (NCF) (Oxoid, Hampshire, UK) by a Shimazu UV-1650PC spectrophotometer. Up to 5% DMSO, no influence on the enzyme activities of MBLs was observed. The assays were conducted in 50 mM MES (pH 7.0) containing an enzyme (263 nM), 100 μM ZnCl2, and 100 μg/mL bovine serum albumin. After 5 min of pre-incubation of the purified enzyme and inhibitor at 30° C., the enzymatic reaction was started by adding nitrocefin (100 μM). Residual velocities were determined after 5 minutes. The first 120 s of each reaction was used to measure initial rates. Data were evaluated using Microsoft Excel. Concentration-dependent inhibition of NDM-1 was measured using different concentrations of seven compounds resulting from two-fold dilution series. Reaction progress at every concentration of seven compounds was measured in triplicates. IC50 values were calculated using 4-parameter log fits using XL Fit curve fitting software (www.idbs.com) for Excel using the following equation: […]
where y is the remaining enzyme activity (in %) and x is the corresponding concentration. The fitted IC50 parameter is defined as the concentration giving a response half way between the fitted top (B) and bottom (A) of the curve. […]
as §2, with “Compounds (DCPBA, ACP-DCPBA, and CHP-DCPBA) were dissolved in 100% DMSO at 10 mM.” left out, “nm.” for “nm. Up to 5% DMSO, no influence on the enzyme activities of MBLs was observed.”

[3] = target: VIM-2 (Pseudomonas aeruginosa, UniProt Q9K2N0); test: VIM-2 inhibition assay with nitrocefin as substrate
From the text: as §1, §2

[4] = target: IMP-1 (Serratia marcescens, UniProt P52699); test: IMP-1 inhibition assay with nitrocefin as substrate; conditions: Subclass B1 MBL, enzyme 891 nM, 100 μM nitrocefin, 5 minute pre-incubation
From the text: as §1, §2

[5] = target: GOB-1 (Elizabethkingia meningoseptica, UniProt Q9RB00); test: GOB-1 inhibition assay with nitrocefin as substrate; conditions: Subclass B3 MBL, enzyme 2.69 μM, 100 μM nitrocefin, 5 minute pre-incubation
From the text: as §1, §2

[6] = target: CphA (Aeromonas hydrophila, UniProt P26918); test: CphA inhibition assay with nitrocefin as substrate; conditions: for IC50 of CphA relative to that for DCPBA: fold lower than DCPBA
From the text: as §1
To investigate the inhibitory effects of novel compounds (DCPBA, ACP-DCPBA, and CHP-DCPBA) against four clinically-important subclass B1 MBLs (NDM-1, IMP-1, VIM-2, and GIM-1), subclass B2 MBL (CphA), and subclass B3 MBL (GOB-1), the IC50 values for them were determined (Table 4). Compounds (DCPBA, ACP-DCPBA, and CHP-DCPBA) were dissolved in 100% DMSO at 10 mM. Activities of MBLs were determined by monitoring the change of absorbance at 482 nm. Up to 5% DMSO, no influence on the enzyme activities of MBLs was observed. Each enzyme (NDM-1, 263 nM; IMP-1, 891 nM; VIM-2, 81 nM; GIM-1, 662 nM; CphA, 157 nM; GOB-1, 2.69 μM) was mixed with 100 μM nitrocefin after a 5 minute pre-incubation with compounds (DCPBA, ACP-DCPBA, and CHP-DCPBA). The first 120 s of each reaction was used to measure initial rates. Data were evaluated using Microsoft Excel. Reaction progress at every concentration of DCPBA (ACP-DCPBA or CHP-DCPBA) was measured in triplicates.

[7] = Subclass B1 MBL, enzyme 263 nM, 100 μM nitrocefin, 5 minute pre-incubation, read-out: IC50 NDM-1

Sequence of CphA (P26918 28-254): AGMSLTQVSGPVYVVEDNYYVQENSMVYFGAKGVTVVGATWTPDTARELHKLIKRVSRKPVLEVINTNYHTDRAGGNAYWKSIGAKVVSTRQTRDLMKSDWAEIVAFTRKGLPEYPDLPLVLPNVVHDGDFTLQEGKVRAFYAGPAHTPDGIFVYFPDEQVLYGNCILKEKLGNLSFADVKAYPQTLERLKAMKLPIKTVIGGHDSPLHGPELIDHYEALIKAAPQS
Sequence of GIM-1 (Q704V1 19-250): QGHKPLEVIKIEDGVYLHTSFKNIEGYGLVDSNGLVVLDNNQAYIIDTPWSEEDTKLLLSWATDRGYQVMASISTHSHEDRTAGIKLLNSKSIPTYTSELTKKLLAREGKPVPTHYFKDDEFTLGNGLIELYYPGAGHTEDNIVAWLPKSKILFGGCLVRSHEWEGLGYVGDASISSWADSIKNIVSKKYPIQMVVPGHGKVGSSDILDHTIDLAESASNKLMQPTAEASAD
Sequence of NDM-1 (C7C422 30-270 limits assumed, looked up): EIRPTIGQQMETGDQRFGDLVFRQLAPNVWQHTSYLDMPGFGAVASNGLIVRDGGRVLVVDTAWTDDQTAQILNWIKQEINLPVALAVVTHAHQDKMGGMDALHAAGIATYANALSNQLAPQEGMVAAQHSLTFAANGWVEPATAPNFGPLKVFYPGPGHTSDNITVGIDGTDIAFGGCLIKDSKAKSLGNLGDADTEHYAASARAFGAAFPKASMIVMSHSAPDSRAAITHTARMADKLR
Sequence of IMP-1 (P52699 21-246 limits assumed): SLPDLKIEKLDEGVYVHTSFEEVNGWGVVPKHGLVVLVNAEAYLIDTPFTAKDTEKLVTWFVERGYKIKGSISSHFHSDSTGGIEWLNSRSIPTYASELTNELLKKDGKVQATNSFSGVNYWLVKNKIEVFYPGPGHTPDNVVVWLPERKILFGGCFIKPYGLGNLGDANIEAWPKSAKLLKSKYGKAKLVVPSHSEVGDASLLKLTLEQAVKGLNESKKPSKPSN
Sequence of GOB-1 (Q9RB00 entry or part of it): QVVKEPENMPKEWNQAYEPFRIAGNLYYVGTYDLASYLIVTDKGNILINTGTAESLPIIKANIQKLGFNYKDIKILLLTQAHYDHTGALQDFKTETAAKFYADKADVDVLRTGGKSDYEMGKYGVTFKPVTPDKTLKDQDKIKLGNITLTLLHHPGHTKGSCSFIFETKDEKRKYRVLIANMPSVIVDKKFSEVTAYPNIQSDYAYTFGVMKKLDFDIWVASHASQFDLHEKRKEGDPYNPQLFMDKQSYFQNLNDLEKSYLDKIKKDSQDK

## OB(O)c1cc(Cl)cc(Cl)c1 [Compound 1, 3,5-Dichlorophenylboronic Acid]
[1]
  IC50: 144.64 ± 0.01 µM
[2]; NDM-1 263 nM, nitrocefin 100 μM, 50 mM MES pH 7.0, 5 min pre-incubation at 30° C., read-out: IC50 values on NDM-1 of the screened compounds
  IC50: 79.9 µM
[3]
  IC50: 27.33 ± 0.01 µM
[4]
  IC50: 738.88 ± 0.01 µM
[5]
  IC50: 798.9 ± 0.02 µM
[6]
  IC50: 530.87 ± 0.02 µM

## OB(O)c1cc(Cl)c(Oc2ccc(Cl)cc2O)c(Cl)c1 [CHP-DCPBA, (3,5-dichloro-4-(4-chloro-2-hydroxyphenoxy)phenyl)boronic acid]
[1]; Subclass B1 MBL, enzyme 662 nM, 100 μM nitrocefin, 5 minute pre-incubation, read-out: IC50 GIM-1
  IC50: 81.35 ± 0.03 µM
[2]; [7]
  IC50: 37.77 ± 0.01 µM
[3]
  IC50: 15.15 ± 0.01 µM
[4]
  IC50: 468.3 ± 0.01 µM
[5]
  IC50: 468.5 ± 0.01 µM
[6]; Subclass B2 MBL, enzyme 157 nM, 100 μM nitrocefin, 5 minute pre-incubation, read-out: IC50 CphA
  IC50: 80.81 ± 0.01 µM
[6]
  IC50 of CphA relative to that for DCPBA: six-fold lower

## Nc1ccc(Oc2c(Cl)cc(B(O)O)cc2Cl)cc1Cl [ACP-DCPBA, (4-(4-amino-3-chlorophenoxy)-3,5-dichlorophenyl)boronic Acid]
[1]
  IC50: 144.64 ± 0.01 µM
[2]; [7]
  IC50: 78.78 ± 0.01 µM
[3]
  IC50: 22.78 ± 0.01 µM
[4]
  IC50: 738.41 ± 0.01 µM
[5]
  IC50: 790.24 ± 0.02 µM
[6]
  IC50: 90.19 ± 0.01 µM
  IC50 of CphA relative to that for DCPBA: six-fold lower

From patent publication US11395829B2, “Inhibitors of metallo-beta-lactamases produced by multidrug-resistant bacteria” (MYONGJI UNIVERSITY INDUSTRY AND ACADEMIA COOPERATION …, priority 2019, dated 2022)
